Like-named read-outs stand apart in the source and are kept apart here.
How the values were obtained:
human CB2 receptor = target: T1, human CB2 receptor (Homo sapiens, UniProt P34972); experiment: CB2 radioligand competitive binding assay ([3H]CP 55,940 displacement); conditions: for Selectivity CB2: fold difference between CB1 and CB2 binding, printed in the column of the receptor with higher affinity, 1.00 in both = about the same affinity
T1 construct: host or cells: CHO-K1 (stably transfected cell line, membranes prepared in house)
Method: Compounds of the present disclosure were tested for CB1 receptor binding affinity and for CB2 receptor binding affinity. As used herein, “binding affinity” is represented by the IC50 value, which was experimentally determined as described herein. The lower the IC50 value the higher the binding affinity. A compound of the present disclosure may be said to have “binding selectivity” if it has a higher binding affinity for one receptor compared to the other.
The membranes were prepared from CHO-K1 (Chinese hamster ovary) cells stably transfected with the human CB2 receptor (Cat. #ES-111-C; Perkin Elmer, Boston, Mass.). The cells were grown adherently and maintained in Ham's F12 medium containing 10% fetal bovine serum (FBS), penicillin, streptomycin and geneticin (G418) at 37° C. in a humid atmosphere of 5% CO2 following the manufacturer's instructions.
For membrane preparation the cells were washed with PBS and scraped off the plates in cold homogenization buffer (25 mM HEPES (pH 7.4), 2 mM EDTA) containing protease inhibitor cocktail (Sigma Cat. #P8340). The cell suspension was homogenized with a Pro-PK-01200D Polytron Homogenizer (Pro Scientific) and then centrifuged for 30 min at 120,000×g. The supernatant was discarded and the pellet was re-suspended in the homogenization buffer and stored at −80° C. until the time of use.
In this experiment, 3H radiolabeled CP 55,940, i.e. [3H]CP 55,940 (Perkin Elmer, Boston, Mass.), was used as a radioligand for the CB2 receptor to determine the binding affinity of compounds for the CB2 receptor (Scheme 3; above).
The competition binding experiments (single dose and dose-response) were performed by incubating 0.6 nM of [3H]CP55,940 (specific activity 101 Ci/mmol, Perkin Elmer) and different concentrations of compounds disclosed herein with membranes prepared as above from CHO-K1 cells expressing human CB2 receptor (1 μg of protein/well), 50 mM Tris-HCl (pH 7.4), 5 mM MgCl2, 1 mM CaCl2, and 2 mg/mL BSA.
For the single dose experiments, the compound stocks (usually 10 mM in DMSO) were diluted to working stocks in the binding buffer to give the final compound concentrations of 10 μM and 1 μM. For the dose-response experiments the test compounds were sequentially diluted to provide the desired concentration range for the IC50 determination. In each case the compounds were pre-incubated with the membrane for 20 min, before adding the radioligand.
After incubation with the radioligand for 60 min at 37° C., the incubation was terminated by rapid filtration of assay mixture through MultiScreen®HTS^+ 96-well filter plates (Millipore, Cat. #MSFCNXB), pre-soaked for 60 min with 50 mM Tris-HCl (pH 7.4) containing 0.33% polyethylenimine (PEI). The nonspecific binding (NSB) was determined in the presence of 10 μM unlabelled CP55,940. After drying the filter plate at 50° C. for at least 60 min, the filter-bound radioactivity was determined by scintillation spectrometry using the 1450 MicroBeta Plate Counter (Perkin Elmer, Boston, Mass.). From the dose-response experiments, the IC50 values were determined (see Table 1, CB2 IC50).
Where the test compound had about the same affinity for both receptors, this is represented by a value of 1.00 in the column for both receptors.

human CB1 receptor = target: T2, human CB1 receptor (Homo sapiens, UniProt P21554); experiment: CB1 radioligand competitive binding assay ([3H]CP 55,940 displacement); conditions: for Selectivity CB1: fold difference between CB1 and CB2 binding, printed in the column of the receptor with higher affinity, 1.00 in both = about the same affinity
T2 construct: host or cells: CHO-K1 (stably transfected cell line, membranes prepared in house)

[1] = 0.6 nM [3H]CP 55,940, membranes from CHO-K1 cells expressing human CB2 receptor, dose-response, read-out: CB2 IC50
[2] = 0.8 nM [3H]CP 55,940, membranes from CHO-K1 cells expressing human CB1 receptor, dose-response, read-out: CB1 IC50

T2 sequence (P21554 whole entry): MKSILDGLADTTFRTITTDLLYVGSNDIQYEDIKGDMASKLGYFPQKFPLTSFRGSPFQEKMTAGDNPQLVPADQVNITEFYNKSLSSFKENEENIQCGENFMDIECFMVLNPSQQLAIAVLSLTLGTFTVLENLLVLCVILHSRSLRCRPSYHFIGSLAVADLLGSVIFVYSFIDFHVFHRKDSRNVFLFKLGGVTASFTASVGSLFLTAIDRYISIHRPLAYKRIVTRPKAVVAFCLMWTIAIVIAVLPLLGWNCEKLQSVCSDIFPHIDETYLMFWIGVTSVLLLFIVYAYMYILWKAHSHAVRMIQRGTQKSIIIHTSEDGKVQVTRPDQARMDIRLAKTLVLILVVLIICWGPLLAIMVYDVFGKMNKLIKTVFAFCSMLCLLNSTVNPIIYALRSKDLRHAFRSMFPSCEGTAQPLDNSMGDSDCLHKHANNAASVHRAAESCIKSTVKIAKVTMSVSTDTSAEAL
T1 sequence (P34972 whole entry): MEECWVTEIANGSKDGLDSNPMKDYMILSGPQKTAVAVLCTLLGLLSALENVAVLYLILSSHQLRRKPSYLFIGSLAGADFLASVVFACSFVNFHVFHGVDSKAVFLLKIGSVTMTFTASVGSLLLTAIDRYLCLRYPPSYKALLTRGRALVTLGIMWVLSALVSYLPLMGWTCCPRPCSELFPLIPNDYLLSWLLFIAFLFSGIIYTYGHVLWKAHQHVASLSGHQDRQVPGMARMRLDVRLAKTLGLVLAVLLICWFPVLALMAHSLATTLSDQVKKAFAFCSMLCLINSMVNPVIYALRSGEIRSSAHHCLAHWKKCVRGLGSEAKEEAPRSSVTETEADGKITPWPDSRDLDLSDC

Row | Compound | IC50 (human CB2 receptor; [1]) | Selectivity CB2 (human CB2 receptor) | IC50 (human CB1 receptor; [2]) | Selectivity CB1 (human CB1 receptor) | IC50 (human CB2 receptor) | IC50 (human CB1 receptor)
1 | CCCCCCC(C)(C)c1cc(O)c(CC=C(C)CCC=C(C)C)c(OCOC(=O)C(C)(C)C)c1 [Compound 22, (2-(3,7-dimethylocta-2,6-dien-1-yl)-3-hydroxy-5-(2-methyloctan-2-yl)phenoxy)methyl pivalate] | < 500 nM | 7.25 fold | 1000 to 4990 nM |  |  | 
2 | CCCCCc1cc(O)c(CC=C(C)CCC=C(C)C)c(OCOC2CCCCC2)c1 [Compound 18, 3-((cyclohexyloxy)methoxy)-2-(3,7-dimethylocta-2,6-dien-1-yl)-5-pentylphenol] | < 500 nM | 28.00 fold | > 5000 nM |  |  | 
3 | CCCCCc1cc(O)c(CC=C(C)CCC=C(C)C)c(OCOC(=O)OCC)c1 [Compound 4, (2-(3,7-dimethylocta-2,6-dien-1-yl)-3-hydroxy-5-pentylphenoxy)methyl ethyl carbonate] | < 500 nM | 7.82 fold | 1000 to 4990 nM |  |  | 
4 | CCCc1cc(O)c(C/C=C(\C)CCC=C(C)C)c(OCOC(=O)C(C)(C)C)c1 [Compound 19, (2-(3,7-dimethylocta-2,6-dien-1-yl)-3-hydroxy-5-propylphenoxy)methyl pivalate] | < 500 nM | 3.89 fold | 500 to 990 nM |  |  | 
5 | CCCCCc1cc(OCOC(=O)C(C)(C)C)c(CC=C(C)CCC=C(C)C)c(OCOC(=O)C(C)(C)C)c1 [7′, ((2-(3,7-dimethylocta-2,6-dien-1-yl)-5-pentyl-1,3-phenylene)bis(oxy))bis(methylene) bis(2,2-dimethylpropanoate)] | > 5000 nM | 1.00 fold | > 5000 nM | 1.00 fold |  | 
6 | CCCCCc1cc(O)c(CC=C(C)CCC=C(C)C)c(OCOC(=O)C(C)(C)C)c1 [Compound 7, (2-(3,7-dimethylocta-2,6-dien-1-yl)-3-hydroxy-5-pentylphenoxy)methyl pivalate] | < 500 nM | 16.02 fold | 500 to 990 nM |  |  | 
7 | dimethyl (((5-butyl-2-(3,7-dimethylocta-2,6-dien-1-yl)-1,3-phenylene)bis(oxy))bis(methylene)) bis(phenylcarbamate) [23′] | > 5000 nM | 1.88 fold | > 5000 nM |  |  | 
8 | CCCCCc1cc(O)c(C/C=C(\C)CCC=C(C)C)c(OCOCC)c1 [Compound 16, 2-(3,7-dimethylocta-2,6-dien-1-yl)-3-(ethoxymethoxy)-5-pentylphenol] | 1000 to 4990 nM | 2.83 fold | > 5000 nM |  |  | 
9 | CCCc1cc(O)c(C/C=C(\C)CCC=C(C)C)c(OCOC(=O)OCC)c1 [Compound 20, (2-(3,7-dimethylocta-2,6-dien-1-yl)-3-hydroxy-5-propylphenoxy)methyl ethyl carbonate] | 1000 to 4990 nM | 1.80 fold | 1000 to 4990 nM |  |  | 
10 | CCCCCCC(C)(C)c1cc(OCOC(=O)C(C)(C)C)c(CC=C(C)CCC=C(C)C)c(OCOC(=O)C(C)(C)C)c1 [22′, ((2-(3,7-dimethylocta-2,6-dien-1-yl)-5-(2-methyloctan-2-yl)-1,3-phenylene)bis(oxy))bis(methylene) bis(2,2-dimethylpropanoate)] | 1000 to 4990 nM | 7.14 fold | > 5000 nM |  |  | 
11 | CCCCCc1cc(OCOC2CCCCC2)c(CC=C(C)CCC=C(C)C)c(OCOC2CCCCC2)c1 [18′, ((((2-(3,7-dimethylocta-2,6-dien-1-yl)-5-pentyl-1,3-phenylene)bis(oxy))bis(methylene))bis(oxy))dicyclohexane] | > 5000 nM | 1.00 fold | > 5000 nM | 1.00 fold |  | 
12 | CCCCCc1cc(O)c(C/C=C(\C)CCC=C(C)C)c(OCOCCOC)c1 [Compound 17, 2-(3,7-dimethylocta-2,6-dien-1-yl)-3-((2-methoxyethoxy)methoxy)-5-pentylphenol] |  | 4.00 fold |  |  | 1000 to 4990 nM | 1000 to 4990 nM
13 | CCCCCCC(C)(C)c1cc(O)c(C/C=C(\C)CCC=C(C)C)c(OCOC(=O)OCC)c1 [Compound 21, (2-(3,7-dimethylocta-2,6-dien-1-yl)-3-hydroxy-5-(2-methyloctan-2-yl)phenoxy)methyl ethyl carbonate] |  | 6.92 fold |  |  | < 500 nM | 500 to 990 nM
14 | CCCCCc1cc(OCOC(=O)OCC)c(CC=C(C)CCC=C(C)C)c(OCOC(=O)OCC)c1 [4′, ((2-(3,7-dimethylocta-2,6-dien-1-yl)-5-pentyl-1,3-phenylene)bis(oxy))bis(methylene) diethyl bis(carbonate)] | 500 to 990 nM | 24.69 fold | > 5000 nM |  |  | 
15 | CCCCCc1cc(O)c(C/C=C(\C)CCC=C(C)C)c(OCN(C(=O)OC)c2ccccc2)c1 [Compound 23, methyl ((2-(3,7-dimethylocta-2,6-dien-1-yl)-3-hydroxy-5-pentylphenoxy)methyl)(phenyl)carbamate] | < 500 nM | 1.37 fold | < 500 nM |  |  | 

Source: patent US20230059582A1, “CANNABINOID DERIVATIVES” (CANOPY GROWTH CORPORATION, priority 2019, published 2023)
